In BigSolDB 2.1:

COC(=O)CC[C@H](N)C(=O)O
solubility (mole fraction)
Conditions	283.15 K	288.15 K	293.15 K	298.15 K	303.15 K	308.15 K	313.15 K	318.15 K	323.15 K
in acetone	5.18e-05	9.7e-05	0.000148	0.000221	0.000292	0.000377	0.000438	0.000516	0.000572
in ethanol	0.000116	0.000147	0.000177	0.000212	0.000245	0.000272	0.000307	0.000348	0.000383
in isopropanol	8.34e-05	0.000104	0.000124	0.000144	0.000166	0.000196	0.000217	0.000245	0.000272
in methanol	0.00115	0.00122	0.0013	0.00138	0.00145	0.00152	0.00161	0.0017	0.00179
in n-propanol	1.38e-05	4.22e-05	7.7e-05	0.000116	0.000154	0.000208	0.000246	0.000289	0.000336
in water	0.0337	0.036	0.0394	0.0426	0.0457	0.0489	0.0523	0.0565	0.0608
